# Reference: PubChem BioAssay (NCI)
#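 Each compound was tested at five concentrations against cells in 96-well plates for 48 hours. TGI: concentration producing complete growth inhibition.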 Where a SMILES comes first, the peptide text is derived from it. The star is where a group is joined. Boc = CC(C)(C)OC(=O)*; Bn = c1ccc(C*)cc1
# Test system: SK-MEL-28 melanoma
# Experiment: DTP human tumour cell line panel, 48 h
row,SMILES,TGI
1,CCN(CC)Cc1ccc(C(=S)Nc2ccc(Cl)cc2)s1,20.8 µM
2,COC(=O)C(CC(C)C)NC(=O)C(C)NC(=O)C(Cc1ccc(OCc2ccccc2)cc1)NC(=O)C(COCc1ccccc1)NC(=O)OC(C)(C)C (stereo unspecified) (Boc-S(Bn)Y(Bn)AL-OMe; configuration not given here),> 100 µM
3,CCn1c(-c2ccccc2)cs/c1=N\C(P(=O)(O)O)P(=O)(O)O,> 100 µM
4,Cc1ccc(-n2cnc(C(=N)C#N)c2N)cc1,> 100 µM
5,COC(=O)/C=C(\C(=O)OC)C1C(=O)Oc2c(C)c(=O)c3ccccc3n21 (stereo unspecified),> 100 µM
6,O=C(O)c1nnsc1-c1ccc(-c2snnc2C(=O)O)cc1,> 100 µM
7,CC(=O)c1ccccc1NP(=O)(c1ccccc1)c1ccccc1,> 100 µM

# Test system: LOX IMVI melanoma
# Experiment: DTP human tumour cell line panel, 48 h
row,SMILES,TGI
1,CCN(CC)Cc1ccc(C(=S)Nc2ccc(Cl)cc2)s1,16.2 µM
2,COC(=O)C(CC(C)C)NC(=O)C(C)NC(=O)C(Cc1ccc(OCc2ccccc2)cc1)NC(=O)C(COCc1ccccc1)NC(=O)OC(C)(C)C (stereo unspecified) (Boc-S(Bn)Y(Bn)AL-OMe; configuration not given here),> 100 µM
3,CCn1c(-c2ccccc2)cs/c1=N\C(P(=O)(O)O)P(=O)(O)O,> 100 µM
4,Cc1ccc(-n2cnc(C(=N)C#N)c2N)cc1,> 100 µM
5,COC(=O)/C=C(\C(=O)OC)C1C(=O)Oc2c(C)c(=O)c3ccccc3n21 (stereo unspecified),> 100 µM
6,O=C(O)c1nnsc1-c1ccc(-c2snnc2C(=O)O)cc1,> 100 µM
7,CC(=O)c1ccccc1NP(=O)(c1ccccc1)c1ccccc1,> 100 µM

# Test system: 786-0 renal
# Experiment: DTP human tumour cell line panel, 48 h
row,SMILES,TGI
1,CCN(CC)Cc1ccc(C(=S)Nc2ccc(Cl)cc2)s1,26.4 µM
2,COC(=O)C(CC(C)C)NC(=O)C(C)NC(=O)C(Cc1ccc(OCc2ccccc2)cc1)NC(=O)C(COCc1ccccc1)NC(=O)OC(C)(C)C (stereo unspecified) (Boc-S(Bn)Y(Bn)AL-OMe; configuration not given here),> 100 µM
3,CCn1c(-c2ccccc2)cs/c1=N\C(P(=O)(O)O)P(=O)(O)O,> 100 µM
4,Cc1ccc(-n2cnc(C(=N)C#N)c2N)cc1,> 100 µM
5,COC(=O)/C=C(\C(=O)OC)C1C(=O)Oc2c(C)c(=O)c3ccccc3n21 (stereo unspecified),> 100 µM
6,O=C(O)c1nnsc1-c1ccc(-c2snnc2C(=O)O)cc1,> 100 µM
7,CC(=O)c1ccccc1NP(=O)(c1ccccc1)c1ccccc1,> 100 µM

# Test system: SK-OV-3 ovarian
# Experiment: DTP human tumour cell line panel, 48 h
row,SMILES,TGI
1,CCN(CC)Cc1ccc(C(=S)Nc2ccc(Cl)cc2)s1,29.7 µM
2,COC(=O)C(CC(C)C)NC(=O)C(C)NC(=O)C(Cc1ccc(OCc2ccccc2)cc1)NC(=O)C(COCc1ccccc1)NC(=O)OC(C)(C)C (stereo unspecified) (Boc-S(Bn)Y(Bn)AL-OMe; configuration not given here),> 100 µM
3,CCn1c(-c2ccccc2)cs/c1=N\C(P(=O)(O)O)P(=O)(O)O,> 100 µM
4,Cc1ccc(-n2cnc(C(=N)C#N)c2N)cc1,> 100 µM
5,COC(=O)/C=C(\C(=O)OC)C1C(=O)Oc2c(C)c(=O)c3ccccc3n21 (stereo unspecified),> 100 µM
6,O=C(O)c1nnsc1-c1ccc(-c2snnc2C(=O)O)cc1,> 100 µM
7,CC(=O)c1ccccc1NP(=O)(c1ccccc1)c1ccccc1,60.8 µM

# Test system: MOLT-4 leukemia
# Experiment: DTP human tumour cell line panel, 48 h
row,SMILES,TGI
1,CCN(CC)Cc1ccc(C(=S)Nc2ccc(Cl)cc2)s1,34.4 µM
2,COC(=O)C(CC(C)C)NC(=O)C(C)NC(=O)C(Cc1ccc(OCc2ccccc2)cc1)NC(=O)C(COCc1ccccc1)NC(=O)OC(C)(C)C (stereo unspecified) (Boc-S(Bn)Y(Bn)AL-OMe; configuration not given here),> 100 µM
3,CCn1c(-c2ccccc2)cs/c1=N\C(P(=O)(O)O)P(=O)(O)O,> 100 µM
4,Cc1ccc(-n2cnc(C(=N)C#N)c2N)cc1,> 100 µM
5,COC(=O)/C=C(\C(=O)OC)C1C(=O)Oc2c(C)c(=O)c3ccccc3n21 (stereo unspecified),> 100 µM
6,O=C(O)c1nnsc1-c1ccc(-c2snnc2C(=O)O)cc1,51.4 µM
7,CC(=O)c1ccccc1NP(=O)(c1ccccc1)c1ccccc1,> 100 µM

# Test system: NCI-H226 lung
# Experiment: DTP human tumour cell line panel, 48 h
row,SMILES,TGI
1,COC(=O)C(CC(C)C)NC(=O)C(C)NC(=O)C(Cc1ccc(OCc2ccccc2)cc1)NC(=O)C(COCc1ccccc1)NC(=O)OC(C)(C)C (stereo unspecified) (Boc-S(Bn)Y(Bn)AL-OMe; configuration not given here),> 100 µM
2,CCn1c(-c2ccccc2)cs/c1=N\C(P(=O)(O)O)P(=O)(O)O,> 100 µM
3,Cc1ccc(-n2cnc(C(=N)C#N)c2N)cc1,> 100 µM
4,COC(=O)/C=C(\C(=O)OC)C1C(=O)Oc2c(C)c(=O)c3ccccc3n21 (stereo unspecified),> 100 µM
5,O=C(O)c1nnsc1-c1ccc(-c2snnc2C(=O)O)cc1,> 100 µM

# Test system: OVCAR-5 ovarian
# Experiment: DTP human tumour cell line panel, 48 h
row,SMILES,TGI
1,CCN(CC)Cc1ccc(C(=S)Nc2ccc(Cl)cc2)s1,23.7 µM
2,COC(=O)C(CC(C)C)NC(=O)C(C)NC(=O)C(Cc1ccc(OCc2ccccc2)cc1)NC(=O)C(COCc1ccccc1)NC(=O)OC(C)(C)C (stereo unspecified) (Boc-S(Bn)Y(Bn)AL-OMe; configuration not given here),> 100 µM
3,CCn1c(-c2ccccc2)cs/c1=N\C(P(=O)(O)O)P(=O)(O)O,> 100 µM
4,Cc1ccc(-n2cnc(C(=N)C#N)c2N)cc1,> 100 µM
5,O=C(O)c1nnsc1-c1ccc(-c2snnc2C(=O)O)cc1,> 100 µM
6,CC(=O)c1ccccc1NP(=O)(c1ccccc1)c1ccccc1,> 100 µM

# Test system: BT-549 breast
# Experiment: DTP human tumour cell line panel, 48 h
row,SMILES,TGI
1,CCN(CC)Cc1ccc(C(=S)Nc2ccc(Cl)cc2)s1,19.7 µM
2,COC(=O)C(CC(C)C)NC(=O)C(C)NC(=O)C(Cc1ccc(OCc2ccccc2)cc1)NC(=O)C(COCc1ccccc1)NC(=O)OC(C)(C)C (stereo unspecified) (Boc-S(Bn)Y(Bn)AL-OMe; configuration not given here),> 100 µM
3,CCn1c(-c2ccccc2)cs/c1=N\C(P(=O)(O)O)P(=O)(O)O,> 100 µM
4,Cc1ccc(-n2cnc(C(=N)C#N)c2N)cc1,> 100 µM
5,COC(=O)/C=C(\C(=O)OC)C1C(=O)Oc2c(C)c(=O)c3ccccc3n21 (stereo unspecified),> 100 µM
6,O=C(O)c1nnsc1-c1ccc(-c2snnc2C(=O)O)cc1,> 100 µM
7,CC(=O)c1ccccc1NP(=O)(c1ccccc1)c1ccccc1,> 100 µM

# Test system: MDA-N
# Experiment: DTP human tumour cell line panel, 48 h
row,SMILES,TGI
1,CCN(CC)Cc1ccc(C(=S)Nc2ccc(Cl)cc2)s1,23.6 µM
2,COC(=O)C(CC(C)C)NC(=O)C(C)NC(=O)C(Cc1ccc(OCc2ccccc2)cc1)NC(=O)C(COCc1ccccc1)NC(=O)OC(C)(C)C (stereo unspecified) (Boc-S(Bn)Y(Bn)AL-OMe; configuration not given here),> 100 µM
3,CCn1c(-c2ccccc2)cs/c1=N\C(P(=O)(O)O)P(=O)(O)O,> 100 µM
4,Cc1ccc(-n2cnc(C(=N)C#N)c2N)cc1,> 100 µM
5,COC(=O)/C=C(\C(=O)OC)C1C(=O)Oc2c(C)c(=O)c3ccccc3n21 (stereo unspecified),> 100 µM
6,O=C(O)c1nnsc1-c1ccc(-c2snnc2C(=O)O)cc1,> 100 µM
7,CC(=O)c1ccccc1NP(=O)(c1ccccc1)c1ccccc1,> 100 µM

# Test system: HS 578T breast
# Experiment: DTP human tumour cell line panel, 48 h
row,SMILES,TGI
1,CCN(CC)Cc1ccc(C(=S)Nc2ccc(Cl)cc2)s1,32.5 µM
2,COC(=O)C(CC(C)C)NC(=O)C(C)NC(=O)C(Cc1ccc(OCc2ccccc2)cc1)NC(=O)C(COCc1ccccc1)NC(=O)OC(C)(C)C (stereo unspecified) (Boc-S(Bn)Y(Bn)AL-OMe; configuration not given here),> 100 µM
3,CCn1c(-c2ccccc2)cs/c1=N\C(P(=O)(O)O)P(=O)(O)O,> 100 µM
4,Cc1ccc(-n2cnc(C(=N)C#N)c2N)cc1,> 100 µM
5,COC(=O)/C=C(\C(=O)OC)C1C(=O)Oc2c(C)c(=O)c3ccccc3n21 (stereo unspecified),> 100 µM
6,O=C(O)c1nnsc1-c1ccc(-c2snnc2C(=O)O)cc1,> 100 µM
7,CC(=O)c1ccccc1NP(=O)(c1ccccc1)c1ccccc1,> 100 µM

# Test system: OVCAR-4 ovarian
# Experiment: DTP human tumour cell line panel, 48 h
row,SMILES,TGI
1,CCN(CC)Cc1ccc(C(=S)Nc2ccc(Cl)cc2)s1,34.6 µM
2,COC(=O)C(CC(C)C)NC(=O)C(C)NC(=O)C(Cc1ccc(OCc2ccccc2)cc1)NC(=O)C(COCc1ccccc1)NC(=O)OC(C)(C)C (stereo unspecified) (Boc-S(Bn)Y(Bn)AL-OMe; configuration not given here),> 100 µM
3,Cc1ccc(-n2cnc(C(=N)C#N)c2N)cc1,> 100 µM
4,COC(=O)/C=C(\C(=O)OC)C1C(=O)Oc2c(C)c(=O)c3ccccc3n21 (stereo unspecified),> 100 µM
5,O=C(O)c1nnsc1-c1ccc(-c2snnc2C(=O)O)cc1,> 100 µM
6,CC(=O)c1ccccc1NP(=O)(c1ccccc1)c1ccccc1,> 100 µM

# Test system: HOP-92 NSCLC
# Experiment: DTP human tumour cell line panel, 48 h
row,SMILES,TGI
1,COC(=O)C(CC(C)C)NC(=O)C(C)NC(=O)C(Cc1ccc(OCc2ccccc2)cc1)NC(=O)C(COCc1ccccc1)NC(=O)OC(C)(C)C (stereo unspecified) (Boc-S(Bn)Y(Bn)AL-OMe; configuration not given here),> 100 µM
2,CCn1c(-c2ccccc2)cs/c1=N\C(P(=O)(O)O)P(=O)(O)O,> 100 µM
3,O=C(O)c1nnsc1-c1ccc(-c2snnc2C(=O)O)cc1,> 100 µM

# Test system: PC-3 prostate
# Experiment: DTP human tumour cell line panel, 48 h
row,SMILES,TGI
1,CCN(CC)Cc1ccc(C(=S)Nc2ccc(Cl)cc2)s1,28.6 µM
2,COC(=O)C(CC(C)C)NC(=O)C(C)NC(=O)C(Cc1ccc(OCc2ccccc2)cc1)NC(=O)C(COCc1ccccc1)NC(=O)OC(C)(C)C (stereo unspecified) (Boc-S(Bn)Y(Bn)AL-OMe; configuration not given here),> 100 µM
3,CCn1c(-c2ccccc2)cs/c1=N\C(P(=O)(O)O)P(=O)(O)O,> 100 µM
4,Cc1ccc(-n2cnc(C(=N)C#N)c2N)cc1,> 100 µM
5,COC(=O)/C=C(\C(=O)OC)C1C(=O)Oc2c(C)c(=O)c3ccccc3n21 (stereo unspecified),> 100 µM
6,O=C(O)c1nnsc1-c1ccc(-c2snnc2C(=O)O)cc1,> 100 µM
7,CC(=O)c1ccccc1NP(=O)(c1ccccc1)c1ccccc1,> 100 µM

# Test system: UO-31 renal
# Experiment: DTP human tumour cell line panel, 48 h
row,SMILES,TGI
1,CCN(CC)Cc1ccc(C(=S)Nc2ccc(Cl)cc2)s1,23.5 µM
2,COC(=O)C(CC(C)C)NC(=O)C(C)NC(=O)C(Cc1ccc(OCc2ccccc2)cc1)NC(=O)C(COCc1ccccc1)NC(=O)OC(C)(C)C (stereo unspecified) (Boc-S(Bn)Y(Bn)AL-OMe; configuration not given here),> 100 µM
3,CCn1c(-c2ccccc2)cs/c1=N\C(P(=O)(O)O)P(=O)(O)O,> 100 µM
4,Cc1ccc(-n2cnc(C(=N)C#N)c2N)cc1,> 100 µM
5,O=C(O)c1nnsc1-c1ccc(-c2snnc2C(=O)O)cc1,> 100 µM
6,CC(=O)c1ccccc1NP(=O)(c1ccccc1)c1ccccc1,> 100 µM

# Test system: HCT-116 colon
# Experiment: DTP human tumour cell line panel, 48 h
row,SMILES,TGI
1,CCN(CC)Cc1ccc(C(=S)Nc2ccc(Cl)cc2)s1,22.9 µM
2,COC(=O)C(CC(C)C)NC(=O)C(C)NC(=O)C(Cc1ccc(OCc2ccccc2)cc1)NC(=O)C(COCc1ccccc1)NC(=O)OC(C)(C)C (stereo unspecified) (Boc-S(Bn)Y(Bn)AL-OMe; configuration not given here),> 100 µM
3,CCn1c(-c2ccccc2)cs/c1=N\C(P(=O)(O)O)P(=O)(O)O,> 100 µM
4,Cc1ccc(-n2cnc(C(=N)C#N)c2N)cc1,> 100 µM
5,COC(=O)/C=C(\C(=O)OC)C1C(=O)Oc2c(C)c(=O)c3ccccc3n21 (stereo unspecified),> 100 µM
6,O=C(O)c1nnsc1-c1ccc(-c2snnc2C(=O)O)cc1,> 100 µM
7,CC(=O)c1ccccc1NP(=O)(c1ccccc1)c1ccccc1,> 100 µM
